Measurements from PubChem BioAssay AID1963983 (Molecular Pharmacology Branch, DTP, NCI, 2024).

Tested on: 186277-243-T-J2-PDC multi-cell spheroid viability
Experiment: Anticancer human tumor 186277-243-T-J2-PDC patient-derived colon adenocarcinoma cell line growth inhibition [PI3K]
Conditions: for IC50: curve of first compound; for viability, T/C: stronger effect = lower value
Method in brief: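 Spheroid viability read-out. Co-cultures contained the tumor line plus HUVEC and human MSCs. Each agent was paired with a PI3K inhibitor (inavolisib, alpelisib, duvelisib, copanlisib) across half-log dilutions starting at clinical Cmax, or at 10 microM when Cmax was unknown.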

[1] = second compound 0.0316 µM, first compound 0.0316 µM
[2] = second compound 0.0316 µM, first compound 0.1 µM
[3] = second compound 0.0316 µM, first compound 0.316 µM
[4] = second compound 0.0316 µM, first compound 1 µM
[5] = second compound 0.0316 µM, first compound 3.16 µM
[6] = second compound 0.0316 µM, first compound 10 µM
[7] = second compound 0.1 µM, first compound 0.0316 µM
[8] = second compound 0.1 µM, first compound 0.1 µM
[9] = second compound 0.1 µM, first compound 0.316 µM
[10] = second compound 0.1 µM, first compound 1 µM
[11] = second compound 0.1 µM, first compound 3.16 µM
[12] = second compound 0.1 µM, first compound 10 µM
[13] = second compound 0.316 µM, first compound 0.0316 µM
[14] = second compound 0.316 µM, first compound 0.1 µM
[15] = second compound 0.316 µM, first compound 0.316 µM
[16] = second compound 0.316 µM, first compound 1 µM
[17] = second compound 0.316 µM, first compound 3.16 µM
[18] = second compound 0.316 µM, first compound 10 µM
[19] = second compound 1 µM, first compound 0.0316 µM
[20] = second compound 1 µM, first compound 0.1 µM
[21] = second compound 1 µM, first compound 0.316 µM
[22] = second compound 1 µM, first compound 1 µM
[23] = second compound 1 µM, first compound 3.16 µM
[24] = second compound 1 µM, first compound 10 µM
[25] = second compound 3.16 µM, first compound 0.0316 µM
[26] = second compound 3.16 µM, first compound 0.1 µM
[27] = second compound 3.16 µM, first compound 0.316 µM
[28] = second compound 3.16 µM, first compound 1 µM
[29] = second compound 3.16 µM, first compound 3.16 µM
[30] = second compound 3.16 µM, first compound 10 µM
[31] = second compound 10 µM, first compound 0.0316 µM
[32] = second compound 10 µM, first compound 0.1 µM
[33] = second compound 10 µM, first compound 0.316 µM
[34] = second compound 10 µM, first compound 1 µM
[35] = second compound 10 µM, first compound 3.16 µM
[36] = second compound 10 µM, first compound 10 µM
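Note: spheroids exposed to compounds for seven days before viability reading.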
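Throughout, for viability, T/C: 100% = DMSO vehicle control viability.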

CCCS(=O)(=O)Nc1ccc(F)c(C(=O)c2c[nH]c3ncc(-c4ccc(Cl)cc4)cc23)c1F + CC(Nc1ncnc2nc[nH]c12)c1cc2cccc(Cl)c2c(=O)n1-c1ccccc1
IC50 (second compound 0.0316 µM): 5690 nM | IC50 (second compound 0.1 µM): 5060 nM | IC50 (second compound 0.316 µM): 4970 nM | IC50 (second compound 1 µM): 5210 nM | IC50 (second compound 3.16 µM): 5300 nM | IC50 (second compound 10 µM): 5480 nM | viability, T/C [1]: 85.8% | viability, T/C [2]: 96.6% | viability, T/C [3]: 105% | viability, T/C [4]: 85.6% | viability, T/C [5]: 96.5% | viability, T/C [6]: 7.89% | viability, T/C [7]: 97.5% | viability, T/C [8]: 103% | viability, T/C [9]: 93.2% | viability, T/C [10]: 77.8% | viability, T/C [11]: 83.7% | viability, T/C [12]: 7.36% | viability, T/C [13]: 97.3% | viability, T/C [14]: 109% | viability, T/C [15]: 87% | viability, T/C [16]: 94.5% | viability, T/C [17]: 76.5% | viability, T/C [18]: 10.1% | viability, T/C [19]: 86.7% | viability, T/C [20]: 98.1% | viability, T/C [21]: 95.5% | viability, T/C [22]: 94% | viability, T/C [23]: 82.3% | viability, T/C [24]: 7.72% | viability, T/C [25]: 113% | viability, T/C [26]: 94.6% | viability, T/C [27]: 90.6% | viability, T/C [28]: 91% | viability, T/C [29]: 84.8% | viability, T/C [30]: 9.36% | viability, T/C [31]: 108% | viability, T/C [32]: 104% | viability, T/C [33]: 106% | viability, T/C [34]: 105% | viability, T/C [35]: 87.6% | viability, T/C [36]: 8.89%

Cn1nccc1Nc1nccc(-c2ccn(C(CO)c3ccc(Cl)c(F)c3)c(=O)c2)n1 (stereo not drawn) + CC(Nc1ncnc2nc[nH]c12)c1cc2cccc(Cl)c2c(=O)n1-c1ccccc1
IC50 (second compound 0.0316 µM): 2800 nM | IC50 (second compound 0.1 µM): 2380 nM | IC50 (second compound 0.316 µM): 2400 nM | IC50 (second compound 1 µM): 2090 nM | IC50 (second compound 3.16 µM): 1160 nM | IC50 (second compound 10 µM): 339 nM | viability, T/C [1]: 82.5% | viability, T/C [2]: 86.9% | viability, T/C [3]: 112% | viability, T/C [4]: 83.7% | viability, T/C [5]: 46.3% | viability, T/C [6]: 23.6% | viability, T/C [7]: 85.3% | viability, T/C [8]: 103% | viability, T/C [9]: 107% | viability, T/C [10]: 89.1% | viability, T/C [11]: 37.2% | viability, T/C [12]: 26.2% | viability, T/C [13]: 94.7% | viability, T/C [14]: 96.1% | viability, T/C [15]: 125% | viability, T/C [16]: 83.1% | viability, T/C [17]: 40.9% | viability, T/C [18]: 23.7% | viability, T/C [19]: 94.3% | viability, T/C [20]: 101% | viability, T/C [21]: 103% | viability, T/C [22]: 75.7% | viability, T/C [23]: 36.3% | viability, T/C [24]: 24.3% | viability, T/C [25]: 106% | viability, T/C [26]: 100% | viability, T/C [27]: 105% | viability, T/C [28]: 53.9% | viability, T/C [29]: 27.6% | viability, T/C [30]: 20.8% | viability, T/C [31]: 88.7% | viability, T/C [32]: 91.4% | viability, T/C [33]: 51% | viability, T/C [34]: 27.5% | viability, T/C [35]: 24.5% | viability, T/C [36]: 15.5%

CC(C)n1nc(-c2ccc3oc(N)nc3c2)c2c(N)ncnc21 + COc1c(OCCCN2CCOCC2)ccc2c3n(c(=NC(=O)c4cnc(N)nc4)nc12)CCN3
IC50 (second compound 0.00316 µM): 49.7 nM | IC50 (second compound 0.01 µM): 42.2 nM | IC50 (second compound 0.0316 µM): 5.38 nM | IC50 (second compound 0.1 µM): < 0.316 nM | IC50 (second compound 0.316 µM): < 0.316 nM | IC50 (second compound 1 µM): < 0.316 nM | viability, T/C (second compound 0.00316 µM, first compound 0.000316 µM): 108% | viability, T/C (second compound 0.00316 µM, first compound 0.001 µM): 81.1% | viability, T/C (second compound 0.00316 µM, first compound 0.00316 µM): 97.7% | viability, T/C (second compound 0.00316 µM, first compound 0.01 µM): 82.9% | viability, T/C (second compound 0.00316 µM, first compound 0.0316 µM): 70.8% | viability, T/C (second compound 0.00316 µM, first compound 0.1 µM): 21.2% | viability, T/C (second compound 0.01 µM, first compound 0.000316 µM): 97.5% | viability, T/C (second compound 0.01 µM, first compound 0.001 µM): 103% | viability, T/C (second compound 0.01 µM, first compound 0.00316 µM): 86.5% | viability, T/C (second compound 0.01 µM, first compound 0.01 µM): 89.8% | viability, T/C (second compound 0.01 µM, first compound 0.0316 µM): 61% | viability, T/C (second compound 0.01 µM, first compound 0.1 µM): 14.7% | viability, T/C (second compound 0.0316 µM, first compound 0.000316 µM): 74.2% | viability, T/C (second compound 0.0316 µM, first compound 0.001 µM): 70.6% | viability, T/C (second compound 0.0316 µM, first compound 0.00316 µM): 59.5% | viability, T/C (second compound 0.0316 µM, first compound 0.01 µM): 39% | viability, T/C [1]: 17.1% | viability, T/C [2]: 6.6% | viability, T/C (second compound 0.1 µM, first compound 0.000316 µM): 17% | viability, T/C (second compound 0.1 µM, first compound 0.001 µM): 17.5% | viability, T/C (second compound 0.1 µM, first compound 0.00316 µM): 14.3% | viability, T/C (second compound 0.1 µM, first compound 0.01 µM): 9.3% | viability, T/C [7]: 8.21% | viability, T/C [8]: 3.59% | viability, T/C (second compound 0.316 µM, first compound 0.000316 µM): 4.14% | viability, T/C (second compound 0.316 µM, first compound 0.001 µM): 7.06% | viability, T/C (second compound 0.316 µM, first compound 0.00316 µM): 4.26% | viability, T/C (second compound 0.316 µM, first compound 0.01 µM): 4.69% | viability, T/C [13]: 2.78% | viability, T/C [14]: 2.4% | viability, T/C (second compound 1 µM, first compound 0.000316 µM): 3.07% | viability, T/C (second compound 1 µM, first compound 0.001 µM): 1.73% | viability, T/C (second compound 1 µM, first compound 0.00316 µM): 3% | viability, T/C (second compound 1 µM, first compound 0.01 µM): 1.5% | viability, T/C [19]: 3.24% | viability, T/C [20]: 1.04%

CC1(C)CCC(CN2CCN(c3ccc(C(=O)NS(=O)(=O)c4ccc(NCC5CCOCC5)c([N+](=O)[O-])c4)c(Oc4cnc5[nH]ccc5c4)c3)CC2)=C(c2ccc(Cl)cc2)C1 + Cc1nc(NC(=O)N2CCCC2C(N)=O)sc1-c1ccnc(C(C)(C)C(F)(F)F)c1
IC50 (second compound 0.0316 µM): 4680 nM | IC50 (second compound 0.1 µM): 4440 nM | IC50 (second compound 0.316 µM): 4350 nM | IC50 (second compound 1 µM): 3930 nM | IC50 (second compound 3.16 µM): 1500 nM | IC50 (second compound 10 µM): < 31.6 nM | viability, T/C [1]: 101% | viability, T/C [2]: 92.7% | viability, T/C [3]: 106% | viability, T/C [4]: 89.9% | viability, T/C [5]: 74.6% | viability, T/C [6]: 3.75% | viability, T/C [7]: 96.5% | viability, T/C [8]: 109% | viability, T/C [9]: 95.3% | viability, T/C [10]: 101% | viability, T/C [11]: 69.8% | viability, T/C [12]: 2.39% | viability, T/C [13]: 101% | viability, T/C [14]: 85.7% | viability, T/C [15]: 111% | viability, T/C [16]: 104% | viability, T/C [17]: 68.2% | viability, T/C [18]: 2.68% | viability, T/C [19]: 101% | viability, T/C [20]: 112% | viability, T/C [21]: 96.9% | viability, T/C [22]: 89.7% | viability, T/C [23]: 61.5% | viability, T/C [24]: 0.93% | viability, T/C [25]: 54.2% | viability, T/C [26]: 61.3% | viability, T/C [27]: 58.9% | viability, T/C [28]: 51.8% | viability, T/C [29]: 43% | viability, T/C [30]: 0.38% | viability, T/C [31]: 16.6% | viability, T/C [32]: 15.8% | viability, T/C [33]: 16.6% | viability, T/C [34]: 12.8% | viability, T/C [35]: 13.8% | viability, T/C [36]: 0.48%
